Assay results as given in ChEMBL document CHEMBL3784938, “Novel heterocyclic ring-fused oleanolic acid derivatives as osteoclast inhibitors for osteoporosis” (Medchemcomm, 2016).

Columns and labels:
[1] = tested on: RAW264.7; experiment: Antiosteoclast activity in mouse RAW264.7 cells assessed as inhibition of RANKL-induced osteoclast differentiation at 2 uM after 5 days by TRAP assay; assay type: functional; settings: RAW264.7, 120 h
[2] = tested on: RAW264.7; experiment: Antiosteoclast activity in mouse RAW264.7 cells assessed as inhibition of RANKL-induced osteoclast differentiation at 20 uM after 5 days by TRAP assay; assay type: functional; settings: RAW264.7, 120 h
[3] = tested on: RAW264.7; experiment: cells; settings: Mus musculus, RAW264.7, 120 h
Description: Antiosteoclast activity in mouse RAW264.7 cells assessed as inhibition of RANKL-induced osteoclast differentiation after 5 days by TRAP assay

IC50 [3] [nM]	SMILES	inhibition at 2 µM [1] [%]	inhibition at 20 µM [2] [%]
	CC1(C)CC[C@]2(C(=O)NCCCN3CCOCC3)CC[C@]3(C)C(=CC[C@@H]4[C@@]5(C)Cc6cnoc6C(C)(C)[C@@H]5CC[C@]43C)[C@@H]2C1	23.2	45.9
	CC1(C)CC[C@]2(C(=O)NCCCN3CCOCC3)CC[C@]3(C)C(=CC[C@@H]4[C@@]5(C)Cc6cn(S(=O)(=O)c7ccc(OC(F)(F)F)cc7)nc6C(C)(C)[C@@H]5CC[C@]43C)[C@@H]2C1	31.8	86.3
	CC1(C)CC[C@]2(C(=O)O)CC[C@]3(C)C(=CC[C@@H]4[C@@]5(C)Cc6cnoc6C(C)(C)[C@@H]5CC[C@]43C)[C@@H]2C1	27.4	100
	Cn1cc2c(n1)C(C)(C)[C@@H]1CC[C@]3(C)[C@H](CC=C4[C@@H]5CC(C)(C)CC[C@]5(C(=O)NCc5ccccc5)CC[C@]43C)[C@@]1(C)C2	76	99.7
	CC1(C)CC[C@]2(C(=O)NC3CCN(Cc4ccccc4)CC3)CC[C@]3(C)C(=CC[C@@H]4[C@@]5(C)Cc6c[nH]nc6C(C)(C)[C@@H]5CC[C@]43C)[C@@H]2C1	88.6	100
	CC1(C)CC[C@]2(C(=O)NC3CCN(Cc4ccccc4)CC3)CC[C@]3(C)C(=CC[C@@H]4[C@@]5(C)Cc6cn(S(=O)(=O)c7ccc(OC(F)(F)F)cc7)nc6C(C)(C)[C@@H]5CC[C@]43C)[C@@H]2C1	2.2	71.9
68	CC1(C)CC[C@]2(C(=O)NCCN3CCCCC3)CC[C@]3(C)C(=CC[C@@H]4[C@@]5(C)Cc6cn(S(=O)(=O)c7ccc(C(F)(F)F)cc7)nc6C(C)(C)[C@@H]5CC[C@]43C)[C@@H]2C1	100	100
	CC1(C)CC[C@]2(C(=O)NCCCN3CCOCC3)CC[C@]3(C)C(=CC[C@@H]4[C@@]5(C)Cc6cn(S(=O)(=O)c7ccc(F)cc7)nc6C(C)(C)[C@@H]5CC[C@]43C)[C@@H]2C1	56.1	97.7
	Cn1cnc(S(=O)(=O)n2cc3c(n2)C(C)(C)[C@H]2CC[C@@]4(C)[C@@H](CC=C5[C@H]6CC(C)(C)CC[C@@]6(C(=O)NC6CCN(Cc7ccccc7)CC6)CC[C@@]54C)[C@]2(C)C3)c1	80.7	100
	Cc1noc(C)c1S(=O)(=O)n1cc2c(n1)C(C)(C)[C@@H]1CC[C@]3(C)[C@H](CC=C4[C@@H]5CC(C)(C)CC[C@]5(C(=O)NC5CCN(Cc6ccccc6)CC5)CC[C@]43C)[C@@]1(C)C2	64	69.5
	CC1(C)CC[C@]2(C(=O)NCCN3CCCCC3)CC[C@]3(C)C(=CC[C@@H]4[C@@]5(C)Cc6cn(S(=O)(=O)c7ccc(C(C)(C)C)cc7)nc6C(C)(C)[C@@H]5CC[C@]43C)[C@@H]2C1	20.8	89.8
	CC1(C)CC[C@]2(C(=O)NCCN3CCCCC3)CC[C@]3(C)C(=CC[C@@H]4[C@@]5(C)Cc6cn(S(=O)(=O)c7ccc(Cl)cc7)nc6C(C)(C)[C@@H]5CC[C@]43C)[C@@H]2C1	0.9	100
	Cn1cnc(S(=O)(=O)n2cc3c(n2)C(C)(C)[C@@H]2CC[C@]4(C)[C@H](CC=C5[C@@H]6CC(C)(C)CC[C@]6(C(=O)NCCN6CCCCC6)CC[C@]54C)[C@@]2(C)C3)c1	89.5	100
	CC1(C)CC[C@]2(C(=O)NC3CCN(Cc4ccccc4)CC3)CC[C@]3(C)C(=CC[C@@H]4[C@@]5(C)Cc6cn(S(=O)(=O)c7ccc(C(C)(C)C)cc7)nc6C(C)(C)[C@@H]5CC[C@]43C)[C@@H]2C1	39.2	65.6
	CC1(C)CC[C@]2(C(=O)NC3CCN(Cc4ccccc4)CC3)CC[C@]3(C)C(=CC[C@@H]4[C@@]5(C)Cc6cn(S(=O)(=O)c7ccc(C(F)(F)F)cc7)nc6C(C)(C)[C@@H]5CC[C@]43C)[C@@H]2C1	83.6	82.1
